Laboratory results taken from patent US11737999B2, “Amino acid compositions and methods for the treatment of post-acute sequelae of COVID-19” (AXCELLA HEALTH INC., priority 2021, dated 2023).

Columns and labels:
[1] = system: Col1a1; assay: Col1a1 gene expression (RT-qPCR) in primary human hepatic stellate cells stimulated with TGFβ1; format: cell-based; settings: for Col1a1 Fold Expression Relative to Control, Mean: single amino acid; for Col1a1 gene expression (summary in words): hepatic stellate cells, three donors
[2] = system: IL-6; assay: IL-6 cytokine secretion in primary human hepatic stellate cells stimulated with TNFα; format: cell-based; settings: for IL-6 secretion (summary in words): hepatic stellate cells, two donors
[3] = system: IL-6; assay: LPS-induced IL-6 secretion in primary human monocyte-derived macrophages; settings: for IL-6 Measurements, Mean: LPS, baseline subtracted values
[4] = system: MCP1/CCL2; assay: MCP1/CCL2 secretion by ELISA in primary human hepatocytes with FFA + TNFα; format: cell-based; settings: for MCP1/CCL2 secretion (summary in words): primary human hepatocytes, two healthy donors
[5] = system: MCP-1; assay: MCP-1 chemokine secretion in primary human hepatic stellate cells stimulated with TNFα; format: cell-based; settings: for Fold Change MCP1 Secretion Normalized Per Cell, Mean: donor 3; for Fold Change MCP1 Secretion Normalized Per Cell: donor 4
[6] = system: Procollagen Iα1; assay: Procollagen Iα1 secretion (ELISA) in primary human hepatic stellate cells stimulated with TGFβ1; format: cell-based; settings: for Procollagen lα1 Secretion (Fold Change of 1X), Mean: first donor; for Procollagen lα1 Secretion (Fold Change of 1X), Mean / Procollagen Iα1 Secretion, Mean: single amino acid; for procollagen Iα1 secretion (summary in words): hepatic stellate cells, three donors
[7] = system: TNF-α; assay: LPS-induced TNF-α secretion in primary human monocyte-derived macrophages; settings: for TNF-α Measurements Mean (baseline subtracted): 0.15 ng/mL LPS
[8] = Donor 1, Conc. 66 μM (baseline)
[9] = Donor 2, Conc. 234 μM (baseline)

CC[C@H](C)[C@H](N)C(=O)O [Isoleucine, L-Isoleucine]
Col1a1 Fold Expression Relative to Control, Mean ([1]; first donor, 3320 μM): 1.10 fold
Col1a1 gene expression (summary in words) [1]: did not significantly change Col1a1 gene expression in any donor
Col1a1 Fold Expression Relative to Control, Mean ([1]; second donor (Table 27), 66 μM (baseline)): 1.00 fold
Col1a1 Fold Expression Relative to Control, Mean ([1]; second donor (Table 27), 1328 μM): 0.97 fold
Col1a1 Fold Expression Relative to Control, Mean ([1]; second donor (Table 27), 3320 μM): 0.99 fold
Col1a1 Fold Expression Relative to Control, Mean ([1]; second donor (Table 27), 6639 μM): 1.03 fold
Col1a1 Fold Expression Relative to Control, Mean ([1]; second donor (Table 29), 1328 μM): 0.94 fold
Col1a1 Fold Expression Relative to Control, Mean ([1]; second donor (Table 29), 3320 μM): 0.94 fold
Col1a1 Fold Expression Relative to Control, Mean ([1]; second donor (Table 29), 6639 μM): 1.03 fold
Fold Change IL-6 Secretion Normalized Per Cell ([2]; donor 1, Isoleucine 66 μM (plasma level, reference)): 1.0000 fold change
Fold Change IL-6 Secretion Normalized Per Cell ([2]; donor 2, Isoleucine 66 μM (plasma level, reference)): 1.0000 fold change
IL-6 secretion (summary in words) [2]: no significant effect on IL-6 secretion
IL-6 Measurements, Mean [3, 8]: 0
IL-6 Measurements, Mean ([3]; Donor 2, Conc. 1328 μM): −2.318
IL-6 Measurements, Mean ([3]; Donor 2, Conc. 3320 μM): 2.305
IL-6 Measurements, Mean ([3]; Donor 2, Conc. 6639 μM): −1.774
IL-6 Measurements Mean (baseline subtracted) ([3]; Donor 3, Conc. 3320 μM, 0.15 ng/mL LPS): 0
MCP1 expression relative to Control, Mean ([4]; Donor 1, Conc. 66 μM): −1.2E−15
MCP1 expression relative to Control, Mean ([4]; Donor 1, Conc. 1328 μM): −0.3073
MCP1 expression relative to Control, Mean ([4]; Donor 1, Conc. 3320 μM): −2.417
MCP1 expression relative to Control, Mean ([4]; Donor 1, Conc. 6639 μM): −0.205
MCP1 expression relative to Control, Mean ([4]; Donor 2, Conc. 66 μM): 0
MCP1 expression relative to Control, Mean ([4]; Donor 2, Conc. 1328 μM): 26.62
MCP1 expression relative to Control, Mean ([4]; Donor 2, Conc. 3320 μM): −5.645
MCP1 expression relative to Control, Mean ([4]; Donor 2, Conc. 6639 μM): 18.62
MCP1/CCL2 secretion (summary in words) [4]: did not have an effect on MCP1/CCL2 secretion
Fold Change MCP1 Secretion Normalized Per Cell, Mean ([5]; Conc. 66 μM): 1.0000 Fold Change
Fold Change MCP1 Secretion Normalized Per Cell ([5]; Isoleucine 66 μM (plasma level, reference)): 1.0000 fold change
Procollagen lα1 Secretion (Fold Change of 1X), Mean ([6]; 1328 μM): 0.9229 fold
Procollagen lα1 Secretion (Fold Change of 1X), Mean ([6]; 3320 μM): 1.1366 fold
Procollagen lα1 Secretion (Fold Change of 1X), Mean ([6]; 6639 μM): 1.2144 fold
procollagen Iα1 secretion (summary in words) [6]: significantly increased procollagen Iα1 secretion in two of three donors
Procollagen Iα1 Secretion, Mean ([6]; second donor, Conc. 66 μM (baseline)): 1.0000 Fold Change of 1×
Procollagen Iα1 Secretion, Mean ([6]; second donor, Conc. 1328 μM): 1.4811 Fold Change of 1×
Procollagen Iα1 Secretion, Mean ([6]; second donor, Conc. 3320 μM): 1.4940 Fold Change of 1×
Procollagen Iα1 Secretion, Mean ([6]; second donor, Conc. 6639 μM): 1.5423 Fold Change of 1×
Procollagen Iα1 Secretion, Mean ([6]; third donor, Conc. 66 μM (baseline)): 1.0000 Fold Change of 1×
Procollagen Iα1 Secretion, Mean ([6]; third donor, Conc. 1328 μM): 1.2687 Fold Change of 1×
Procollagen Iα1 Secretion, Mean ([6]; third donor, Conc. 3320 μM): 1.2703 Fold Change of 1×
Procollagen Iα1 Secretion, Mean ([6]; third donor, Conc. 6639 μM): 1.4465 Fold Change of 1×
TNF-α Measurements Mean (baseline subtracted) [7, 8]: 0
TNF-α Measurements Mean (baseline subtracted) ([7]; Donor 1, Conc. 1328 μM): −42.68
TNF-α Measurements Mean (baseline subtracted) ([7]; Donor 1, Conc. 3320 μM): −96.3
TNF-α Measurements Mean (baseline subtracted) ([7]; Donor 1, Conc. 6639 μM): −40.95
LPS-induced TNF-α secretion (summary in words) ([7]; Donor 2): increased TNF-α secretion
TNF-α Measurements Mean (baseline subtracted) ([7]; Donor 2, Conc. 66 μM (baseline)): 4.74E−15
TNF-α Measurements Mean (baseline subtracted) ([7]; Donor 2, Conc. 1328 μM): 2.919
TNF-α Measurements Mean (baseline subtracted) ([7]; Donor 2, Conc. 3320 μM): 10.26
TNF-α Measurements Mean (baseline subtracted) ([7]; Donor 2, Conc. 6639 μM): 19.26
TNF-α Measurements Mean (baseline subtracted) ([7]; Donor 3, Conc. 66 μM (baseline)): −2.4E−15
TNF-α Measurements Mean (baseline subtracted) ([7]; Donor 3, Conc. 1328 μM): −6.23
TNF-α Measurements Mean (baseline subtracted) ([7]; Donor 3, Conc. 3320 μM): 3.309
TNF-α Measurements Mean (baseline subtracted) ([7]; Donor 3, Conc. 6639 μM): −1.66

CC(C)[C@H](N)C(=O)O [Valine, L-Valine]
Col1a1 Fold Expression Relative to Control, Mean ([1]; first donor, 234 μM (baseline)): 1.00 fold
Col1a1 Fold Expression Relative to Control, Mean ([1]; first donor, 23420 μM): 1.00 fold
Col1a1 gene expression (summary in words) [1]: did not significantly change Col1a1 gene expression in any donor
Col1a1 Fold Expression Relative to Control, Mean ([1]; second donor (Table 27), 234 μM (baseline)): 1.00 fold
Col1a1 Fold Expression Relative to Control, Mean ([1]; second donor (Table 27), 4684 μM): 1.05 fold
Col1a1 Fold Expression Relative to Control, Mean ([1]; second donor (Table 27), 11710 μM): 0.98 fold
Col1a1 Fold Expression Relative to Control, Mean ([1]; second donor (Table 27), 23420 μM): 1.05 fold
Col1a1 Fold Expression Relative to Control, Mean ([1]; second donor (Table 29), 4684 μM): 1.22 fold
Col1a1 Fold Expression Relative to Control, Mean ([1]; second donor (Table 29), 23420 μM): 1.13 fold
Fold Change IL-6 Secretion Normalized Per Cell ([2]; donor 1, Valine 234 μM (plasma level, reference)): 1.0000 fold change
Fold Change IL-6 Secretion Normalized Per Cell ([2]; donor 2, Valine 234 μM (plasma level, reference)): 1.0000 fold change
IL-6 secretion (summary in words) [2]: no significant effect on IL-6 secretion
IL-6 Measurements, Mean ([3]; Donor 1, Conc. 234 μM (baseline)): 0
IL-6 Measurements, Mean [3, 9]: −4.7E−15
IL-6 Measurements, Mean ([3]; Donor 2, Conc. 4684 μM): −4.528
IL-6 Measurements, Mean ([3]; Donor 2, Conc. 11710 μM): −1.196
IL-6 Measurements, Mean ([3]; Donor 2, Conc. 23420 μM): 4.396
MCP1 expression relative to Control, Mean ([4]; Donor 1, Conc. 234 μM): −2.4E−15
MCP1 expression relative to Control, Mean ([4]; Donor 1, Conc. 4684 μM): 23.6867
MCP1 expression relative to Control, Mean ([4]; Donor 1, Conc. 11710 μM): 77.73
MCP1 expression relative to Control, Mean ([4]; Donor 1, Conc. 23420 μM): 14.17
MCP1 expression relative to Control, Mean ([4]; Donor 2, Conc. 234 μM): −1.4E−14
MCP1 expression relative to Control, Mean ([4]; Donor 2, Conc. 4684 μM): 10.79
MCP1 expression relative to Control, Mean ([4]; Donor 2, Conc. 11710 μM): 38.25
MCP1 expression relative to Control, Mean ([4]; Donor 2, Conc. 23420 μM): −30.7921
MCP1/CCL2 secretion (summary in words) [4]: did not have an effect on MCP1/CCL2 secretion
Fold Change MCP1 Secretion Normalized Per Cell, Mean ([5]; Conc. 234 μM): 1.0000 Fold Change
Fold Change MCP1 Secretion Normalized Per Cell ([5]; Valine 234 μM (plasma level, reference)): 1.0000 fold change
MCP-1 secretion (summary in words) ([5]; hepatic stellate cells, two donors): no significant impact on MCP-1 secretion
Procollagen lα1 Secretion (Fold Change of 1X), Mean ([6]; 4684 μM): 1.1203 fold
Procollagen lα1 Secretion (Fold Change of 1X), Mean ([6]; 11710 μM): 1.2069 fold
Procollagen lα1 Secretion (Fold Change of 1X), Mean ([6]; 23420 μM): 1.2139 fold
procollagen Iα1 secretion (summary in words) [6]: significantly increased procollagen Iα1 secretion in only one of two donors
Procollagen Iα1 Secretion, Mean ([6]; second donor, Conc. 234 μM (baseline)): 1.0000 Fold Change of 1×
Procollagen Iα1 Secretion, Mean ([6]; second donor, Conc. 4684 μM): 1.2865 Fold Change of 1×
Procollagen Iα1 Secretion, Mean ([6]; second donor, Conc. 11710 μM): 1.2877 Fold Change of 1×
Procollagen Iα1 Secretion, Mean ([6]; second donor, Conc. 23420 μM): 1.3068 Fold Change of 1×
Procollagen Iα1 Secretion, Mean ([6]; third donor, Conc. 234 μM (baseline)): 1.0000 Fold Change of 1×
Procollagen Iα1 Secretion, Mean ([6]; third donor, Conc. 4684 μM): 1.0428 Fold Change of 1×
Procollagen Iα1 Secretion, Mean ([6]; third donor, Conc. 11710 μM): 1.0498 Fold Change of 1×
Procollagen Iα1 Secretion, Mean ([6]; third donor, Conc. 23420 μM): 1.1139 Fold Change of 1×
TNF-α Measurements Mean (baseline subtracted) ([7]; Donor 1, Conc. 4684 μM): −40.37
TNF-α Measurements Mean (baseline subtracted) ([7]; Donor 1, Conc. 11710 μM): −41.77
TNF-α Measurements Mean (baseline subtracted) ([7]; Donor 1, Conc. 23420 μM): −14.98
TNF-α Measurements Mean (baseline subtracted) [7, 9]: −4.7E−15
TNF-α Measurements Mean (baseline subtracted) ([7]; Donor 2, Conc. 4684 μM): −0.00221
TNF-α Measurements Mean (baseline subtracted) ([7]; Donor 2, Conc. 11710 μM): −0.835
TNF-α Measurements Mean (baseline subtracted) ([7]; Donor 2, Conc. 23420 μM): −1.251
TNF-α Measurements Mean (baseline subtracted) ([7]; Donor 3, Conc. 234 μM (baseline)): −2.4E−15
TNF-α Measurements Mean (baseline subtracted) ([7]; Donor 3, Conc. 4684 μM): 0.126
TNF-α Measurements Mean (baseline subtracted) ([7]; Donor 3, Conc. 11710 μM): −2.599
TNF-α Measurements Mean (baseline subtracted) ([7]; Donor 3, Conc. 23420 μM): 3.688
